In patent US6593340B1, “Pharmaceutical compositions containing N-propargylphentermine and related analogs to treat neurodegeneration and/or depression” (CV Technologies, Inc., priority 2000, dated 2003):
Read-outs that look alike come from different tables or passages of the source.

Experiments:
[1] = test system: rat brain and liver monoamine oxidase-B; assay: Monoamine oxidase-B-inhibiting activity ex vivo; format: in vivo; conditions: for % Inhibition Monoamine Oxidase-B: 7 days following injection, i.p., combined with DSP4 50 mg/kg; for effect on monoamine oxidase-B activity in the brain or liver: seven days after administration
Procedure: The compounds were evaluated for ex vivo monoamine oxidase-B-inhibiting activity using the radiochemical procedure of Lyles and Callingham (1982) employing radiolabeled β-phenylethylamine as substrate for monoamine oxidase-B. The compounds of interest were injected intraperitoneally in water. Animals were killed by decapitation and the brains and livers immediately removed and frozen until assay for monoamine oxidase-B activity. Tissues were homogenized and appropriately diluted in buffer prior to incubation. Incubations proceeded at 37° C. for 10 minutes. Incubation was terminated by the addition of acid and the radiolabeled product (phenylacetic acid) was extracted and quantified by liquid scintillation counting procedures. […] The percent inhibition of monoamine oxidase-B activity compared to controls containing no drug was calculated. Reference: Lyles, G. A. and Callingham, B. A. (1982). […] Biochaem. Pharmacol. 31:1417-1424.
Neuroprotectant activity was evaluated by examining the prevention of DSP-4 induced noradrenaline depletion in mouse hippocampus as described previously (Yu et al., 1994). Briefly, mice were injected (i.p.) with either water or potential neuroprotectants (10 mg/kg in water). One hour later they were injected with either water or DSP-4 (50 mg/kg in water). One week later the mice were killed and the brains removed and the hippocampus dissected out. The hippocampus was frozen and saved for estimation of noradrenaline and other amine neurotransmitters and their metabolites (Sloley and Goldberg, 1991). The rest of the brain and the liver were frozen and retained for estimation of monoamine oxidase activities ex vivo as described earlier. […] 63:1820-1828. Sloley, B. D. and Goldberg J. I. (1991), Determination of y-glutamyl conjugates of monoamines by means of high-performance liquid chromatography with electrochemical detection and application to gastropod tissues, J. Chromatog. 567:49-56.

[2] = test system: rat brain and liver monoamine oxidase-A; assay: Monoamine oxidase-A-inhibiting activity ex vivo; format: in vivo; conditions: for % Inhibition Monoamine Oxidase-A: 7 days following injection, i.p., 10 mg/kg combined with DSP4 50 mg/kg; for effect on monoamine oxidase-A activity in the brain or liver: seven days after administration
[3] = test system: serotonin (5-HT) uptake into rat striatal prisms; assay: Inhibition of serotonin uptake in vitro; format: cell-based; design: dose or concentration left out as unconfirmed
Procedure: Animals were killed by decapitation and the hippocampus or striatum were removed and placed in ice cold incubation medium. […] 0.8 ml of ice cold prism of suspension per test tube was used. Each test tube was pre-incubated for 5 minutes at 37° C. At this time each test tube was placed on ice and the appropriate drug solution or control was added. This was rapidly followed by the addition of the radiolabled amine (titrated noradrenaline or serotonin, 0.01 μM, specific activity about 13.5 Ci/mmol). The mixture was incubated for 10 minutes at 37° C. The incubations were then filtered and washed using a cell harvester and the radioactivity retained on the filters was measured using a scintillation counter. The percent inhibition of amine uptake compared to controls containing no drug was calculated. […] The effect of viloxaine hydrochloride on the transport of noradenaline, dopamine, 5-hydroxytryptamine and gamma-amino-butyric acid in rat brain tissue.

[4] = test system: DSP-4 induced noradrenaline depletion in mouse hippocampus; assay: Prevention of DSP-4 neurotoxicity ex vivo (noradrenaline depletion); format: in vivo; conditions: 10 mg/kg i.p.; for % NA Restoration: then DSP-4 50 mg/kg one hour later, one week
Procedure: Neuroprotectant activity was evaluated by examining the prevention of DSP-4 induced noradrenaline depletion in mouse hippocampus as described previously (Yu et al., 1994). Briefly, mice were injected (i.p.) with either water or potential neuroprotectants (10 mg/kg in water). One hour later they were injected with either water or DSP-4 (50 mg/kg in water). One week later the mice were killed and the brains removed and the hippocampus dissected out. The hippocampus was frozen and saved for estimation of noradrenaline and other amine neurotransmitters and their metabolites (Sloley and Goldberg, 1991). The rest of the brain and the liver were frozen and retained for estimation of monoamine oxidase activities ex vivo as described earlier. […] References: Yu, P. H., Davis, B. A., Fang, J. and Boulton, A. A. (1994), Neuroprotective effect of some monoamine oxidase-B inhibitors against DSP-4 induced noradrenaline depletion in the mouse hippocampus, J. Neurochem. 63:1820-1828. Sloley, B. D. and Goldberg J. I. (1991), Determination of y-glutamyl conjugates of monoamines by means of high-performance liquid chromatography with electrochemical detection and application to gastropod tissues, J. Chromatog. 567:49-56.

[5] = biological target: T1, rat brain monoamine oxidase-A (Rattus norvegicus, UniProt P21396); assay: Monoamine oxidase-A-inhibiting activity in vitro (radiochemical, 5-hydroxytryptamine substrate); format: biochemical
T1 construct: incubated in appropriately diluted homogenates of rat brain or liver; from tissue; host or cells: rat brain or liver homogenate
T1 sequence (P21396 1-526): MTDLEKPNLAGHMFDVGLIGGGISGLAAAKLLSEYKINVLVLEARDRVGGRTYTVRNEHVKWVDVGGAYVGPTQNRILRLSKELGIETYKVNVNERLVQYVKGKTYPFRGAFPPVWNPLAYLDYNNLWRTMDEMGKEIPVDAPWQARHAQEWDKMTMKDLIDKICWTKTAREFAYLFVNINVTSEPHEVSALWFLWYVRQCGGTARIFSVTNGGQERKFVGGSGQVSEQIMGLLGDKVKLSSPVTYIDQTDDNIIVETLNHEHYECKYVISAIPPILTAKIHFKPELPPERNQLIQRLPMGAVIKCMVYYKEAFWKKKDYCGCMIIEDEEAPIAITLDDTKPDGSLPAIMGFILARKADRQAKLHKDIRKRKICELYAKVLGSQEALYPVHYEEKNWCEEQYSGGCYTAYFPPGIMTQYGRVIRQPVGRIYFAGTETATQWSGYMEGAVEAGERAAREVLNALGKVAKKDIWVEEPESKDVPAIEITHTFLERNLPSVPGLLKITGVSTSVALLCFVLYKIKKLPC
Procedure: The compounds were evaluated for in vitro monoamine oxidase-A-inhibiting activity using the radiochemical procedure of Lyles and Callingham (1982) employing radiolabeled 5-hydroxytryptamine as substrate for monoamine oxidase-A. Various concentrations of the compounds of interest were incubated in appropriately diluted homogenates of rat brain or liver in a 0.2 M potassium phosphate buffer. Incubations proceeded at 37° C. for 10 minutes. Incubation was terminated by the addition of acid and the radiolabeled product (5-hydroxyindoleacetic acid) was extracted and quantified by liquid scintillation counting procedures. […] The percent inhibition of monoamine oxidase-A activity compared to controls containing no drug was calculated.

[6] = biological target: T2, rat brain monoamine oxidase-B (Rattus norvegicus, UniProt P19643); assay: Monoamine oxidase-B-inhibiting activity in vitro (radiochemical, β-phenylethylamine substrate); format: biochemical
T2 construct: incubated in appropriately diluted homogenates of rat brain or liver; from tissue; host or cells: rat brain or liver homogenate
T2 sequence (P19643 1-520): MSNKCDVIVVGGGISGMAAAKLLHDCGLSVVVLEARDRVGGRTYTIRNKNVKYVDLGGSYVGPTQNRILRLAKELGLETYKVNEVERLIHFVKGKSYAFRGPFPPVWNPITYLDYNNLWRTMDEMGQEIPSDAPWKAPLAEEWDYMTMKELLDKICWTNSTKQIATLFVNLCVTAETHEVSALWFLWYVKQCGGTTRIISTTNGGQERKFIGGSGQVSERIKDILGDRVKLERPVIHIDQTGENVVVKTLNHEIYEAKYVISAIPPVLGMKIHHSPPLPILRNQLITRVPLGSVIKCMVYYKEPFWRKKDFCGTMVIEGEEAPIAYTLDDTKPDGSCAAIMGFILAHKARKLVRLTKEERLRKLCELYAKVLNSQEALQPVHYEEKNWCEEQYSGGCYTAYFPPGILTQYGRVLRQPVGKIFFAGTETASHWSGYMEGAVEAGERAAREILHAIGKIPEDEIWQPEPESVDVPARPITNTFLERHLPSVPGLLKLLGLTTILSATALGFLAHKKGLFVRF
Procedure: The compounds were evaluated for in vitro monoamine oxidase-B inhibiting activity using the radiochemical procedure of Lyles and Callingham (1982) employing radiolabeled β-phenylethylamine as substrate for monoamine oxidase-B. Various concentrations of the compounds of interest were incubated in appropriately diluted homogenates of rat brain or liver in a 0.2 M potassium phosphate buffer. Incubations proceeded at 37° C. for 10 minutes. Incubation was terminated by the addition of hydrochloric acid and the radiolabeled product (phenylacetic acid) was extracted and quantified by liquid scintillation counting procedures. […] The percent inhibition of monoamine oxidase-B activity compared to controls containing no drug was calculated. Reference: Lyles, G. A. and Callingham, B. A. (1982). In vitro and in vivo inhibition by benserazide of clorgyline-resistant amine exodiases in rat cardiovascular tissues. Biochem. Pharmacol, 31:1417-1424.

[7] = test system: noradrenaline uptake into rat hippocampal prisms; assay: Inhibition of noradrenaline uptake in vitro; format: cell-based; design: dose or concentration left out as unconfirmed
Procedure: The ability of N-propargylphetermine and related derivatives to inhibit monoamine uptake was evaluated in vitro by examining the effects of said compounds on the uptake of radiolabeled noradrenaline and serotonin into fresh rat hippocampal and striatal prisms, respectively according to the method described in Martin et al., (1978). Animals were killed by decapitation and the hippocampus or striatum were removed and placed in ice cold incubation medium. Prisms were prepared using a tissue chopper, resuspended in 800 volumes of incubation medium containing 12.5 μM nialamide to inhibit amine metabolism and stored on ice until used. 0.8 ml of ice cold prism of suspension per test tube was used. Each test tube was pre-incubated for 5 minutes at 37° C. At this time each test tube was placed on ice and the appropriate drug solution or control was added. This was rapidly followed by the addition of the radiolabled amine (titrated noradrenaline or serotonin, 0.01 μM, specific activity about 13.5 Ci/mmol). The mixture was incubated for 10 minutes at 37° C. The incubations were then filtered and washed using a cell harvester and the radioactivity retained on the filters was measured using a scintillation counter. The percent inhibition of amine uptake compared to controls containing no drug was calculated. Reference: Maretin I. L., Baker G. B. and Mitchell, P. R. (1978). The effect of viloxaine hydrochloride on the transport of noradenaline, dopamine, 5-hydroxytryptamine and gamma-amino-butyric acid in rat brain tissue. Neuropharmacology 17:421-423.

C#CCNC(C)(C)Cc1ccc(Cl)cc1 [CVT-PP022, p-chloro-N-propargylphentermine]
% Inhibition Monoamine Oxidase-B ([1]; brain): 17.5 ± 5.6% | % Inhibition Monoamine Oxidase-B ([1]; liver): 12.6 ± 5.3% | effect on monoamine oxidase-B activity in the brain or liver [1]: did not significantly affect | % Inhibition Monoamine Oxidase-A ([2]; brain): 2.5 ± 5.2% | % Inhibition Monoamine Oxidase-A ([2]; liver): 5.9 ± 4.1% | effect on monoamine oxidase-A activity in the brain or liver [2]: did not significantly affect | % inhibition 5-HT uptake [3]: 89 ± 1% | protection against DSP-4-induced noradrenaline depletion [4]: significantly protected | % NA Restoration ([4]; Table 6 experiment): 70.5% | IC50 [5]: 160 µM | IC50 [6]: 4 µM | % inhibition NA uptake [7]: 93 ± 2%

C#CCNC(C)(C)Cc1ccccc1 [CVT-PP019, N-propargylphentermine]
% Inhibition Monoamine Oxidase-B ([1]; brain): −9.4 ± 3.0% | % Inhibition Monoamine Oxidase-B ([1]; liver): −10.1 ± 6.6% | effect on monoamine oxidase-B activity in the brain or liver [1]: did not significantly affect | % Inhibition Monoamine Oxidase-A ([2]; brain): −16.4 ± 4.9% | % Inhibition Monoamine Oxidase-A ([2]; liver): −20.1 ± 4.4% | effect on monoamine oxidase-A activity in the brain or liver [2]: did not significantly affect | % inhibition 5-HT uptake [3]: 68 ± 2% | protection against DSP-4-induced noradrenaline depletion [4]: significantly protected | % NA Restoration ([4]; Table 5 experiment): 114.6% | IC50 [5]: 53 µM | IC50 [6]: 5.7 µM | % inhibition NA uptake [7]: 77 ± 3%

NNCCc1ccccc1 [phenelzine.H2SO4, phenelzine, reference compound]
IC50 ([5]; in vitro, rat brain homogenate, read-out: IC50 for inhibition of monoamine oxidase A): 130 µM | IC50 [6]: 26 µM

CNCCCN1c2ccccc2CCc2ccccc21 [Desipramine, reference compound]
% inhibition NA uptake [7]: 99 ± 3%

(−)-deprenyl [reference compound]
% NA Restoration ([4]; Table 5 experiment): 97.2% | % NA Restoration ([4]; Table 6 experiment): 90.3%
